Assay results reported in PubChem BioAssay (NCI).
Where “and” joins values, the source holds several entries; their conditions need not be identical. Identical values can stand only once.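 Where inhibition never reached the appropriate level, the endpoint shown equals the highest concentration tested. Otherwise, values were interpolated linearly from a five-concentration, 48-hour dose response in 96-well plates. GI50 is the concentration that inhibits growth by half. TGI denotes the concentration required for complete inhibition of growth.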

These molecules were tested on M19-MEL melanoma (assay: inhibition of tumour cell growth, NCI panel, 48 h).

Point of comparison: `COC(=O)C[C@](O)(CCCC(C)(C)O)C(=O)O[C@@H]1C(OC)=C[C@]23CCCN2CCc2cc4c(cc2[C@H]13)OCO4`, TGI 0.0866 µM. Against it:
- CC(=O)CCn1ncc(Cl)c(Cl)c1=O — 200-fold higher, 17.2 µM
- CN1CC(=O)N2Cc3ccccc3-n3cccc3C2C1 (configuration not stated) — higher, > 100 µM
- Cc1cn2c(=O)c3ncn(C4OC(CO)C(O)C4O)c3n(C)c2n1 (configuration not stated) — higher, > 100 µM

The molecules below were run on HOP-18 NSCLC (assay: inhibition of tumour cell growth, NCI panel, 48 h).

Point of comparison: `COc1cccc2c1C(=O)c1c(O)c3c(c(O)c1C2=O)C[C@@](O)(C(=O)CO)C[C@@H]3OC1CC(N)CC(C)O1` (some centres not stated), GI50 0.0713 µM. Against it:
- Clc1ccc2c(c1)[nH]c1c2nc2ccccn21 — 590-fold higher, 41.9 µM
- CN(C)CCNC(=O)c1cccc2ccc(-c3ccc(O)cc3)nc12 — 34-fold higher, 2.44 µM

Point of comparison: `CC(=O)CCn1ncc(Cl)c(Cl)c1=O`, TGI 30.5 µM. Against it:
- Clc1ccc2c(c1)[nH]c1c2nc2ccccn21 — higher, > 100 µM
- CCOC(=O)c1cnc2c(ccc3[nH]n(C)nc32)c1=O — higher, > 100 µM
- COc1ccc2occ(CCC(=O)O)c2c1 — higher, > 100 µM
- COC(=O)C(C(=O)c1ccccc1)C(C(=O)C(=O)Nc1ccc(OC)cc1OC)C(=O)C(=O)c1ccc(C)cc1 (configuration not stated) — higher, > 100 µM
- CC1(C)COC(C2(C)C(=O)C=C(c3ccccc3)c3ccccc32)=N1 (configuration not stated) — higher, > 100 µM
- O=C(Nc1ccn(CCO)c(=O)n1)c1ccccc1 — higher, > 100 µM
- CC12C/C(=C\c3ccccc3)C(=O)C3C1CCCC32 — higher, > 100 µM
- OC(CC1SCCCS1)c1ccccc1 (configuration not stated) — higher, > 100 µM
- CCCCOC(=O)CNC(=O)OC/C=C/C#CC#C/C=C/COC(=O)NCC(=O)OCCCC — not separable, > 10 µM
- O=C1c2ccccc2C(=O)N1CCn1ccc(NC(c2ccccc2)(c2ccccc2)c2ccccc2)nc1=O — within 1.5-fold, 42.6 µM
- CC(C)(C)NNC(=O)CCn1[nH]c(=O)c(Cl)c(Cl)c1=O — higher, > 100 µM
- Nc1nc(Cl)cc(NCCCCCCCCNc2cc(Cl)nc(N)n2)n1 — higher, > 100 µM
- CC(C)N(C(=O)C12C3C4C1C1C4(C#N)C3C12C#N)C(C)C (configuration not stated) — higher, > 100 µM
- c1ccc2cc(-c3cc4ccccc4s3)ccc2c1 — higher, > 100 µM
- Cc1ccc(S(=O)(=O)N(C=O)N=C2CCN(Cc3ccccc3)CC2)cc1 — higher, > 100 µM
- CCC(=O)CC(=O)CCC(=O)Nc1cc(C)ccc1C — higher, > 100 µM
- O=c1/c(=C/c2ccccc2[N+](=O)[O-])sc2nnc(-c3ccco3)n12 — 1.9-fold higher, 57.8 µM
- COC(=O)C[C@](O)(CCCC(C)(C)O)C(=O)O[C@@H]1C(OC)=C[C@]23CCCN2CCc2cc4c(cc2[C@H]13)OCO4 — 73-fold lower, 0.418 µM
- CN1CC(=O)N2Cc3ccccc3-n3cccc3C2C1 (configuration not stated) — 3-fold higher, 91.7 µM
- Cc1cn2c(=O)c3ncn(C4OC(CO)C(O)C4O)c3n(C)c2n1 (configuration not stated) — higher, > 100 µM

With `COc1cccc2c1C(=O)c1c(O)c3c(c(O)c1C2=O)C[C@@](O)(C(=O)CO)C[C@@H]3OC1CC(N)CC(C)O1` (some centres not stated) the TGI was 0.906 µM and 0.445 µM.
In the case of `CN(C)CCNC(=O)c1cccc2ccc(-c3ccc(O)cc3)nc12`, the TGI is reported as 7.14 µM and 8.35 µM.

Each molecule was assayed on MDA-N (assay: inhibition of tumour cell growth, NCI panel, 48 h).

Point of comparison: `COc1cccc2c1C(=O)c1c(O)c3c(c(O)c1C2=O)C[C@@](O)(C(=O)CO)C[C@@H]3OC1CC(N)CC(C)O1` (some centres not stated), GI50 0.0272 µM. Against it:
- COc1cc(C(=O)N2CCN(C=O)C2=S)cc(OC)c1OC — 660-fold higher, 17.9 µM

`COc1cccc2c1C(=O)c1c(O)c3c(c(O)c1C2=O)C[C@@](O)(C(=O)CO)C[C@@H]3OC1CC(N)CC(C)O1` (some centres not stated) was tested, and the TGI was 0.274 µM and 0.132 µM.

Point of comparison: `COC(=O)C1c2cc3c(cc2C(OC2OC(C)C(OC)C(C)(OC)C2OC)CC1(C)O)C(=O)c1c(O)cc2c(c1C3=O)OC1OC2(C)C(O)C([N+](C)(C)[O-])C1O` (configuration not stated), TGI 1.03 µM. Against it:
- O=CCC1CCCCC1 — higher, > 100 µM
- CN(C)CCNC(=O)c1cccc2ccc(-c3ccc(O)cc3)nc12 — 8.1-fold higher, 8.3 µM
- CSc1nc(=O)n(CCC#N)nc1SC — 50-fold higher, 51.4 µM
- COc1cccc(C2CC(C)(O)Oc3cc4c(cc32)OCO4)c1O (configuration not stated) — 10-fold higher, 10.4 µM
- CCOC(=O)C(C#N)C1=CC(=O)C(=O)c2ccc(OC)cc21 (configuration not stated) — 17-fold higher, 17.1 µM
- Cc1ccc(S(=O)(=O)Nc2ccccc2C=O)cc1 — 42-fold higher, 42.9 µM
- O=C(Nc1ccc2ncccc2c1)Nc1ccc2ncccc2c1 — higher, > 100 µM
- CC1(C)S[C@@H]2[C@H](NC(=O)C3(N)CCCCC3)C(=O)N2[C@H]1C(=O)O — higher, > 100 µM
- C(=NCCN1CCOCC1)=NC1CCCCC1 — higher, > 100 µM
- COC(=O)C[C@](O)(CCCC(C)(C)O)C(=O)O[C@@H]1C(OC)=C[C@]23CCCN2CCc2cc4c(cc2[C@H]13)OCO4 — higher, > 25 µM
- COc1cc(C(=O)N2CCN(C=O)C2=S)cc(OC)c1OC — 33-fold higher, 34.5 µM

These molecules were tested on SN12K1 renal (assay: inhibition of tumour cell growth, NCI panel, 48 h).

Point of comparison: `COC(=O)C[C@](O)(CCCC(C)(C)O)C(=O)O[C@@H]1C(OC)=C[C@]23CCCN2CCc2cc4c(cc2[C@H]13)OCO4`, TGI 0.0481 µM. Against it:
- COc1cccc2c1C(=O)c1c(O)c3c(c(O)c1C2=O)C[C@@](O)(C(=O)CO)C[C@@H]3OC1CC(N)CC(C)O1 (some centres not stated) — 1.8-fold higher, 0.0846 µM

In the case of `CN(C)CCNC(=O)c1cccc2ccc(-c3ccc(O)cc3)nc12`, the GI50 is reported as 0.383 µM.

With `CN(C)CCNC(=O)c1cccc2ccc(-c3ccc(O)cc3)nc12` the TGI was 3.21 µM and 2.35 µM.

What follows are molecules tested on DLD-1 colon (assay: inhibition of tumour cell growth, NCI panel, 48 h).

`CCOC(=O)c1cnc2c(ccc3[nH]n(C)nc32)c1=O` and `COc1ccc2occ(CCC(=O)O)c2c1` cannot be ordered by TGI: > 100 µM for the first, > 100 µM for the second.

`NC(=S)N/N=C(\CC1OC(=O)c2ccccc21)c1ccc(Cl)cc1` (configuration not stated) and `CC1(C)COC(C2(C)C(=O)C=C(c3ccccc3)c3ccccc32)=N1` (configuration not stated) cannot be ordered by TGI: > 100 µM for the first, > 100 µM for the second.

`COC(=O)C(C(=O)c1ccccc1)C(C(=O)C(=O)Nc1ccc(OC)cc1OC)C(=O)C(=O)c1ccc(C)cc1` (configuration not stated) and `O=C(Nc1ccn(CCO)c(=O)n1)c1ccccc1` cannot be ordered by TGI: > 100 µM for the first, > 100 µM for the second.

`O=C1CCC2(c3ccc(Cl)cc3)Nc3ncccc3N12` (configuration not stated) and `CC12C/C(=C\c3ccccc3)C(=O)C3C1CCCC32` cannot be ordered by TGI: > 100 µM for the first, > 100 µM for the second.
